Laboratory results published in patent US9074014B2 (Ipsen Pharma S.A.S., priority 2008, dated 2015).
Where a SMILES comes first, the peptide text is derived from it. Where no end group is shown, it is not given here. [ ]: non-standard residue; d: D form. The star is where a group is joined. Myristoyl = CCCCCCCCCCCCCC(=O)*; Ac6c = NC1(C(=O)O)CCCCC1; Nle = CCCC[C@H](N)C(=O)O; Orn = NCCC[C@H](N)C(=O)O; Ac5c = NC1(C(=O)O)CCCC1; Aib = CC(C)(N)C(=O)O

Experiments:
[1] = target: T1, human recombinant GIP receptor (Homo sapiens, UniProt P48546); assay: In vitro hGIP receptor binding assay ([125I]GIP displacement, CHO-K1 membranes)
T1 construct: expressed in transfected cells; host or cells: CHO-K1 clonal cells (membranes)
T1 sequence (P48546 22-466): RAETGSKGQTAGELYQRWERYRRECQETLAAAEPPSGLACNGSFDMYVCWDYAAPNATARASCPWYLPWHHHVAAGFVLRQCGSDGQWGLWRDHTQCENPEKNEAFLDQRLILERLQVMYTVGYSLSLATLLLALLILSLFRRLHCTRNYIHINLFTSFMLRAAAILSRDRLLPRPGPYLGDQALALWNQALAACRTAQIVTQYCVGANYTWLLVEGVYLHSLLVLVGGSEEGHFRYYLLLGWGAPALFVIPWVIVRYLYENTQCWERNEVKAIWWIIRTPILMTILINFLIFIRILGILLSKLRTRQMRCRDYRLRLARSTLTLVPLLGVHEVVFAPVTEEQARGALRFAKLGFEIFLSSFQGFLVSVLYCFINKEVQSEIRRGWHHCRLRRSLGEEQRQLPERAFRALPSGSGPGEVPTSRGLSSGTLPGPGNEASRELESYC
Text: A. In Vitro hGIP Receptor Binding Assay

[2] = Rat plasma half-life assay; type: in vitro ADME; settings: rat plasma, 37° C., LC-MS; for half-life at 0.1 mg/ml: read-out: Rat Plasma T½ (converted)
[3] = Human plasma half-life assay; type: in vitro ADME; settings: human plasma, 37° C., LC-MS; read-out: Human Plasma T½ (converted)

| Compound | Ki [1] [nM] | half-life at 0.1 mg/ml [2] [h] | half-life at 0.1 mg/ml [3] [h] | half-life ([2]; read-out: Rat Plasma T½) [h] | half-life [3] [h] |
| --- | --- | --- | --- | --- | --- |
| CC[C@H](C)[C@H](NC(=O)[C@H](CO)NC(=O)[C@H](Cc1ccc(O)cc1)NC(=O)[C@H](CC(=O)O)NC(=O)C(C)(C)NC(=O)[C@@H](NC(=O)[C@H](Cc1ccccc1)NC(=O)[C@@H](NC(=O)CNC(=O)[C@H](CCC(=O)O)NC(=O)C(C)(C)NC(=O)[C@@H](N)Cc1ccc(O)cc1)[C@@H](C)O)[C@@H](C)CC)C(=O)N[C@@H](C)C(=O)N[C@@H](CCSC)C(=O)N[C@@H](CC(=O)O)C(=O)N[C@@H](CCCCN)C(=O)N[C@H](C(=O)N[C@@H](Cc1c[nH]cn1)C(=O)N[C@@H](CCC(N)=O)C(=O)N[C@@H](CCC(N)=O)C(=O)N[C@@H](CC(=O)O)C(=O)N[C@@H](Cc1ccccc1)C(=O)N[C@H](C(=O)N[C@@H](CC(N)=O)C(=O)N[C@@H](Cc1c[nH]c2ccccc12)C(=O)N[C@@H](CC(C)C)C(=O)N[C@@H](CC(C)C)C(=O)N[C@@H](C)C(=O)N[C@@H](CCC(N)=O)C(=O)N[C@@H](CCCCN)C(N)=O)C(C)C)[C@@H](C)CC [Example 17, (Aib^2, 8)hGIP(1-30)-NH2] (H-Y[Aib]EGTFI[Aib]DYSIAMDKIHQQDFVNWLLAQK-NH2; N-terminus assumed) | 15.9 | 55 | 17.4 |  |  |
| CC[C@H](C)[C@H](NC(=O)[C@H](CCCCN)NC(=O)[C@H](CC(=O)O)NC(=O)C1(NC(=O)[C@H](C)NC(=O)[C@@H](NC(=O)C(C)(C)NC(=O)[C@H](Cc2ccc(O)cc2)NC(=O)[C@H](CC(=O)O)NC(=O)[C@H](CO)NC(=O)[C@@H](NC(=O)[C@H](Cc2ccccc2)NC(=O)[C@@H](NC(=O)CNC(=O)[C@H](CCC(=O)O)NC(=O)C(C)(C)NC(=O)[C@@H](N)Cc2ccc(O)cc2)[C@@H](C)O)[C@@H](C)CC)[C@@H](C)CC)CCCCC1)C(=O)N[C@@H](Cc1c[nH]cn1)C(=O)N[C@@H](CCC(N)=O)C(=O)N[C@@H](CCC(N)=O)C(=O)N[C@@H](CC(=O)O)C(=O)N[C@@H](Cc1ccccc1)C(=O)N[C@H](C(=O)N[C@@H](CC(N)=O)C(=O)N[C@@H](Cc1c[nH]c2ccccc12)C(=O)N[C@@H](CC(C)C)C(=O)N[C@@H](CC(C)C)C(=O)N[C@@H](C)C(=O)N[C@@H](CCC(N)=O)C(=O)N[C@@H](CCCCN)C(N)=O)C(C)C [Example 38, (Aib^2, 11, A6c^14)hGIP(1-30)-NH2] (H-Y[Aib]EGTFISDY[Aib]IA[Ac6c]DKIHQQDFVNWLLAQK-NH2; N-terminus assumed) | 0.73 | > 54 | 49.1 |  |  |
| CC[C@H](C)[C@H](NC(=O)[C@H](CCCCN)NC(=O)[C@H](CC(=O)O)NC(=O)[C@H](CCSC)NC(=O)[C@H](C)NC(=O)[C@@H](NC(=O)C1(NC(=O)[C@H](Cc2ccc(O)cc2)NC(=O)[C@H](CC(=O)O)NC(=O)[C@H](CO)NC(=O)[C@@H](NC(=O)[C@H](Cc2ccccc2)NC(=O)[C@@H](NC(=O)CNC(=O)[C@@H]2CCCN2C(=O)[C@H](C)NC(=O)[C@@H](N)Cc2ccc(O)cc2)[C@@H](C)O)[C@@H](C)CC)CCCC1)[C@@H](C)CC)C(=O)N[C@@H](Cc1c[nH]cn1)C(=O)N[C@@H](CCC(N)=O)C(=O)N[C@@H](CCC(N)=O)C(=O)N[C@@H](CC(=O)O)C(=O)N[C@@H](Cc1ccccc1)C(=O)N[C@H](C(=O)N[C@@H](CC(N)=O)C(=O)N[C@@H](Cc1c[nH]c2ccccc12)C(=O)N[C@@H](CC(C)C)C(=O)N[C@@H](CC(C)C)C(=O)N[C@@H](C)C(=O)N[C@@H](CCC(N)=O)C(=O)N[C@@H](CCCCN)C(N)=O)C(C)C [Example 98, (Pro^3, A5c^11)hGIP(1-30)-NH2] (H-YAPGTFISDY[Ac5c]IAMDKIHQQDFVNWLLAQK-NH2; N-terminus assumed) | 65.9 |  |  |  |  |
| CC[C@H](C)[C@H](NC(=O)[C@H](CCCCN)NC(=O)[C@H](CC(=O)O)NC(=O)[C@H](CCSC)NC(=O)[C@H](C)NC(=O)[C@@H](NC(=O)C1(NC(=O)[C@H](Cc2ccc(O)cc2)NC(=O)[C@H](CC(=O)O)NC(=O)[C@H](CO)NC(=O)[C@@H](NC(=O)[C@H](Cc2ccccc2)NC(=O)[C@@H](NC(=O)CNC(=O)[C@H](CCC(=O)O)NC(=O)[C@@H](C)NC(=O)[C@@H](N)Cc2ccc(O)cc2)[C@@H](C)O)[C@@H](C)CC)CCCC1)[C@@H](C)CC)C(=O)N[C@@H](Cc1c[nH]cn1)C(=O)N[C@@H](CCC(N)=O)C(=O)N[C@@H](CCC(N)=O)C(=O)N[C@@H](CC(=O)O)C(=O)N[C@@H](Cc1ccccc1)C(=O)N[C@H](C(=O)N[C@@H](CC(N)=O)C(=O)N[C@@H](Cc1c[nH]c2ccccc12)C(=O)N[C@@H](CC(C)C)C(=O)N[C@@H](CC(C)C)C(=O)N[C@@H](C)C(=O)N[C@@H](CCC(N)=O)C(=O)N[C@@H](CCCCN)C(=O)N[C@@H](Cc1c[nH]cn1)C(N)=O)C(C)C [Example 122, (D-Ala^2, A5c^11, His^31)hGIP(1-31)-NH2] (H-Y[dA]EGTFISDY[Ac5c]IAMDKIHQQDFVNWLLAQKH-NH2; N-terminus assumed) | 0.87 |  |  |  |  |
| Y[Aib]EGTF[Ac6c]SDYSIA[Nle]DK[Ac6c]HQQDFVNWLLAQKGKKNDWKHNITQ-OH [Example 37, (Aib^2, A6c^7, 17, Nle^14)hGIP(1-42)-OH] |  | 14 | > 48 |  |  |
| Y[Aib]EGTF[Aib]SDYSIAMDKIHQQDFVNWLLAQKGKKNDWKHNITQ-OH [Example 3, (Aib^2, 7)hGIP(1-42)-OH] |  | 5.5 | > 48 |  |  |
| Y[Aib]EG[Ac5c]FISDYSIAMDKIHQQDFVNWLLAQKGKKNDWKHNITQ-OH [Example 5, (Aib^2, A5c^5)hGIP(1-42)-OH] |  | 6.1 | > 48 |  |  |
| Y[Aib]EG[Aib]FISDYSIAMDKIHQQDFVNWLLAQKGKKNDWKHNITQ-OH [Example 4, (Aib^2, 5)hGIP(1-42)-OH] |  | 4.8 | > 48 |  |  |
| Y[Aib]E[Aib]TFISDYSIAMDKIHQQDFVNWLLAQKGKKNDWKHNITQ-OH [Example 10, (Aib^2, 4)hGIP(1-42)-OH] |  | 4 | > 48 |  |  |
| Y[dA]EGTFISDY[Ac5c]IAMDKIHQQDFVNWLLAQKGKKNDWKHN[Ac5c]TQ-OH [Example 104, (D-Ala^2, A5c^11,40)hGIP(1-42)-OH] |  | 14.8 | 20.2 |  |  |
| [Orn](Myristoyl)AEGTF[Ac6c]SDYSIAMDKIHQQDFVNWLLAQKGKKNDWKHNITQ-OH [Example 103, [Orn^1(N—C(O)—(CH2)12—CH3), A6c^7]hGIP(1-42)-OH] |  |  |  | > 72 | 6.8 |
